One series addresses T1, thrombin (Homo sapiens, UniProt P00734).
T1 construct: 200 μL (2 nmol) of the thrombin solution prepared at a concentration of 10 pmol/pt was prepared; purchased Research Laboratories
The following applies: read-out: Kd^app values reported in the art; cited from earlier work.

A further series relates to SK-BR-3 cells. The series is described as follows: Cell viability by MTT reduction assay, SK-BR-3. Background: Tetrazolium assays rely on reduction of a dye to a coloured formazan, in cell work by metabolically active cells.
For series [1], the target named is extracellular domain of a HER2 protein (Homo sapiens, UniProt P04626). The following applies: cited from earlier work.
Another series relates to HER2 epitope peptide. The following applies: read-out: Kd for HER2 epitope peptide (reported); cited from earlier work.

{NH2C6} = aminohexyl linker, H2N-(CH2)6-

Method for SK-BR-3 cells: In order to maintain the cells in the log phase, a fresh medium was resupplied two or three times a week.
The cell viability was measured using the standard 3-(4,5-dimethylthiazol-2-yl)-2,5-diphenyltetrazolium bromide (MTT) reduction assay. Simply, cells that grow exponentially were inoculated at a density of 5×10^3 per well in a 96-well with flat bottom plate (200 μL/well) and cultured at 37° C. for 24 hours.
10 μL of MTT solution was added to each well, and the cells were further cultured at 37° C. for 4 hours. The amount of formazan product was measured at 570 nm. The cell survival fraction was calculated as a percentage of the untreated control group.

On to “29-mer DNA aptamer: 5′-H2N—(CH2)6-AGTCCGTGGTAGGGCAGGTTGGGGTGACT-3′, specifically binds to thrombin”, for which the Kd with thrombin was 3.5 nM.

On to “15-mer DNA aptamer: 5′-H2N—(CH2)6-GGT TGG TGT GGT TGG-3′, specifically binds to thrombin”, for which the Kd with thrombin is 20.2 nM. For orientation: IC50 means the midpoint of a concentration-inhibition curve. `COc1cccc2c1C(=O)c1c(O)c3c(c(O)c1C2=O)C[C@@](O)(C(=O)CO)C[C@@H]3O[C@H]1C[C@H](N)[C@H](O)[C@H](C)O1` [Dox, doxorubicin]: the IC50 in the series with SK-BR-3 cells (Homo sapiens, SK-BR-3, 24 h, read-out: IC50 for SK-BR-3) stood at 43.9 nM.

B1: anti-HER2 aptamer: anti-human epidermal growth factor 2 (HER2) aptamer, SEQ ID NO: 3, purchased from Bioneers (nucleic acid)
DNA: AACCGCCCAAATCCCTAAGAGTCTGCACTTGTCATTTTGTATATGTATTTGGTTTTTGGCTCTCACAGACACACTACACACGCACA
modifications: DNA, 5' {NH2C6}, backbone not given here; further chemistry not fully specified
On to B1, for which the Kd in series [1] is 315 nM; in the series with HER2 epitope peptide it was 18.9 nM. For the same molecule, in the series with SK-BR-3 cells (0 nM to 100 nM, FIG. 10), the “cytotoxicity against SK-BR-3 cells” value is reported as “does not have cytotoxicity”.

(Values after US10605810B2, “Pincers comprising antibody and aptamer conjugated via a linker which binds to the same target material and use thereof” (University-Industry Cooperation Group Of Kyung Hee …, priority 2013, dated 2020).)
